For assay [1], the system named is diphenhydramine-induced increase of rat 1-4 Hz EEG amplitude. Nature of the assay: Rat cortical EEG, H3R antagonist co-administered with diphenhydramine (1-4 Hz amplitude). The class given is in vivo. The settings on record: rats. The procedure: (§1) All experiments have been approved by the Institutional Animal Care and Use Committee (IACUC) at Abbott Laboratories and are in strict accordance with the ethical guidelines for use of laboratory animals. All experiments were conducted with male adult CD-1 rats of the Sprague-Dawley strain (Charles River Laboratories, Portage, Mich.) with body weights in the range of 400-600 g. When the rats were not in the laboratory being tested, they were housed 1 per cage in a climate controlled room with 12 hour lights on, 12 hour lights off cycle and food provided ad-lib.
(§2) For anesthesia during surgical implantation of EEG recording electrodes, rats are administered Nembutal (Abbott Laboratories) […] ip. After achieving a deep, stable plane of anesthesia, scalp hair is removed using electric clippers and the rat is placed into the ear and incisor bars of a stereotaxic instrument to immobilize the head. The scalp is disinfected with povidone iodine, and an incision is placed longitudinally along the midline of the scalp and the tissue retracted from the skull with a blunt probe. EEG recording electrodes are bilaterally implanted over the parietal (−2.0 mm anterior-posterior, 4.0 mm lateral from bregma) and frontal (+2.0 mm anterior-posterior, 3.0 mm lateral from bregma) cortices. A reference electrode was placed 11.0 mm posterior to bregma along the centerline (0.0 mm lateral). Cortical surface electrodes consist of stainless steel screws (size #90-00) soldered to a fine wire and a miniature electrical socket. To implant the electrodes, small holes are drilled (#60 bit) into the skull, taking care not to damage the dura with the drill bit. […] Once in place, the electrodes along with the miniature connector are permanently affixed to the skull with acrylic dental cement. The rats are given a 10-14 day recovery period from the surgery before experiments are conducted.
The EEG was recorded from rats inside sound-attenuating chambers (Med Associates Inc, St. Albans, Vt.). Before any pharmacological experiments began, implanted rats were habituated to the EEG recording chambers for 2-5 hours on 5 consecutive days. When placed into the recording chambers, a flexible cable is attached to the miniature connector implanted on the rats. This cable allows the rat unrestricted movement within the chambers during the recording session. […]
(§3) Assessment of cortical low frequency EEG amplitude in the 1-4 Hz band (delta) was used as an electrophysiological measure of H1R and H3R antagonist activity in rats. The average 1-4 Hz EEG amplitude in microvolts (μV) was determined for 10 second epochs using Fast Fourier Transform (FFT) analysis. To determine the average 1-4 Hz EEG amplitude for the first 60 minutes of the recording, 360-10 sec FFT analyzed epochs were averaged together. […]

A further assay concerns the target T1, human H3 receptor (Homo sapiens, UniProt Q9Y5N1).
T1 construct: expressed in transfected cells
Nature of the assay: Competition binding assay with [3H]-N-α-methylhistamine, human H3 receptor. The settings on record: cloned human H3 receptor, cell membranes. The procedure: Membrane preparations were incubated with [^3H]-N-α-methylhistamine (0.5-1.0 nM) in the presence or absence of increasing concentrations of ligands for H3 receptor competition binding.

Assay [2] deals with rat histamine H3 receptor (Rattus norvegicus, UniProt Q9QYN8). Nature of the assay: Competition binding assay with [3H]-N-α-methylhistamine, rat H3 receptor.
Method: The rat and human H3 receptor was cloned and expressed in cells, and competition binding assays carried out, according to methods previously described (see Esbenshade, et al. Journal of Pharmacology and Experimental Therapeutics, vol. 313:165-175, 2005; Esbenshade et al., Biochemical Pharmacology 68 (2004) 933-945; Krueger, et al. Journal of Pharmacology and Experimental Therapeutics, vol. 314:271-281, 2005. Membranes were prepared from C6 or HEK293 cells, expressing the rat histamine H3 receptor, by homogenization on ice in TE buffer (50 mM Tris-HCl buffer, pH 7.4, containing 5 mM EDTA), 1 mM benzamidine, 2 μg/ml aprotinin, 1 μg/ml leupeptin, and 1 μg/ml pepstatin. The homogenate was centrifuged at 40,000 g for 20 minutes at 4° C. This step was repeated, and the resulting pellet was resuspended in TE buffer. Aliquots were frozen at −70° C. until needed. On the day of assay, membranes were thawed and diluted with TE buffer.
Membrane preparations were incubated with [^3H]-N-α-methylhistamine (0.5-1.0 nM) in the presence or absence of increasing concentrations of ligands for H3 receptor competition binding. […] Bound radiolabel was determined by liquid scintillation counting. For all of the radioligand competition binding assays, IC50 values and Hill slopes were determined by Hill transformation of the data and pKi values were determined by the Cheng-Prusoff equation.
For another assay, the system named is rat 1-4 Hz EEG amplitude. Nature of the assay: Rat cortical EEG, H1R or H3R antagonist given alone (1-4 Hz amplitude). The settings on record: rats, vs. vehicle control. The class given is in vivo. The procedure:
as §1, §2
The EEG was recorded from rats inside sound-attenuating chambers (Med Associates Inc, St. Albans, Vt.). Before any pharmacological experiments began, implanted rats were habituated to the EEG recording chambers for 2-5 hours on 5 consecutive days. When placed into the recording chambers, a flexible cable is attached to the miniature connector implanted on the rats. This cable allows the rat unrestricted movement within the chambers during the recording session. EEG amplifiers (AM Systems, Inc., Carlsborg, Wash.) and a computer-based data acquisition system (Datawave Inc., Berthoud, Colo.) were used to acquire (256 Hz sampling rate) and analyze data. All experiments and habituation sessions were conducted during the light phase of the circadian cycle.
Dose response effects on EEG were determined for the H3R antagonist Compound 1 (0.01-1.0 mg/kg), ABT-239 (0.1-3.0 mg/kg), and thioperamide (3.0-30.0 mg/kg). […] Dose response effects on EEG were also determined for the H1 antagonist diphenhydramine (1.0-10.0 mg/kg). […] Each rat received a vehicle control treatment (placebo), and all doses of the test compounds. All treatments were administered by the intraperitoneal (i.p.) route of administration. The treatments were administered in a random order on different days with one treatment per day, and at least 2 days between treatments. This within subjects design allowed each rat to serve as its own control. EEG recordings were begun within 10 minutes after injection and recording sessions lasted for 120 minutes. The time of day for injections and subsequent recordings were between 10:00 AM and 2:00 PM.
as §3

The structures appear in SMILES notation. Where two headings read alike, the source gives them in different places.

rat histamine H3 receptor, sequence (Q9QYN8 whole entry): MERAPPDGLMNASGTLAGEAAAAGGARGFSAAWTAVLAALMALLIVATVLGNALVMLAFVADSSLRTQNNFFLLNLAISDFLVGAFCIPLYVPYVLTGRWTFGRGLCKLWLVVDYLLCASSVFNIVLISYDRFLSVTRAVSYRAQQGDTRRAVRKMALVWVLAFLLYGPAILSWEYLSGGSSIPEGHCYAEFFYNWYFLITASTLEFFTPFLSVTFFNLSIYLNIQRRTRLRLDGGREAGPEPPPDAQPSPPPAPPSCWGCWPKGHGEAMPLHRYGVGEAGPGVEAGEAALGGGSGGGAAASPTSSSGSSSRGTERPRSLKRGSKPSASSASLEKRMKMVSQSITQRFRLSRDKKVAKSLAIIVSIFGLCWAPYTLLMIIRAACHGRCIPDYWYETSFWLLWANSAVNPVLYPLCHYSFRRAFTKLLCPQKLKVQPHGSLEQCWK
T1 sequence (Q9Y5N1 whole entry): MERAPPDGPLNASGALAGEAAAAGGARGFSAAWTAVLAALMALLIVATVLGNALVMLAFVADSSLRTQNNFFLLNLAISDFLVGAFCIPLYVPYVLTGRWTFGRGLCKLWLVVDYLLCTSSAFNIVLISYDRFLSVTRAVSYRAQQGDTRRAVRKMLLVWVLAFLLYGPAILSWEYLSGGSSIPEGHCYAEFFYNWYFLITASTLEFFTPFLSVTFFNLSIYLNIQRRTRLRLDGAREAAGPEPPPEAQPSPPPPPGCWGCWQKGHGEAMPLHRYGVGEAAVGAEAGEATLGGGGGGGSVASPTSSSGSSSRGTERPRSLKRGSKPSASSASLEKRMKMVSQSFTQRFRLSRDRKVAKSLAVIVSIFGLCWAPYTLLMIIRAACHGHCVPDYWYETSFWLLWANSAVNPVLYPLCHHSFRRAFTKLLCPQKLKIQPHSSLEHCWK

Take `CN1C[C@H]2CCN(c3ccc(-c4ccc(-n5ncccc5=O)cc4)cc3)[C@H]2C1` [Compound 1, (3aR, 6aR)-2-[4′-(5-methyl-hexahydro-pyrrolo[3,4-b]pyrrol-1-yl)-biphenyl-4-yl]-2H-pyridazin-3-one]: the “effect on diphenhydramine-induced increase of average 1-4 Hz EEG amplitude” value in assay [1] (0.01 mg/kg i.p. given 15 minutes before diphenhydramine 10.0 mg/kg i.p.) was “did not achieve statistical significance”; in assay [1] (0.03 mg/kg and 0.1 mg/kg i.p. given 15 minutes before diphenhydramine 10.0 mg/kg i.p.), “significantly reduces”. Besides, the values for the inhibition constant Ki (on human H3 receptor; in assay [2]) were 1.9 nM and 8.1 nM, respectively. Also, the “effect on average amplitude of 1-4 Hz EEG, given alone” value (shortened to “effect on average amplitude”) was “lower the average amplitude of 1-4 Hz EEG” with rat 1-4 Hz EEG amplitude (1.0 mg/kg i.p., first hour after injection) and “did not produce significant lowering” in the assay on rat 1-4 Hz EEG amplitude (0.01-0.1 mg/kg i.p., first hour).
Turning to `C[C@@H]1CCCN1CCc1cc2cc(-c3ccc(C#N)cc3)ccc2o1` [Compound 2, 4-(2-[2-((R)-2-methyl-pyrrolidin-1-yl)-ethyl]-benzofuran-5-yl}-benzonitrile], in assay [1] (0.3 mg/kg i.p. given 15 minutes before diphenhydramine 10.0 mg/kg i.p.), the “effect on diphenhydramine-induced increase of average 1-4 Hz EEG amplitude” value is “significantly reduces”. In addition, the “effect on average amplitude” value in the assay on rat 1-4 Hz EEG amplitude (3.0 mg/kg i.p., first hour) was “trend toward a decrease”; in the assay on rat 1-4 Hz EEG amplitude (0.1-3.0 mg/kg i.p., first hour), “did not produce statistically significant lowering”.
As for `S=C(NC1CCCCC1)N1CCC(c2c[nH]cn2)CC1` [Compound 3, N-cyclohexyl-4-(1H-imidazol-4-yl)piperidine-1-carbothioamide], the “effect on diphenhydramine-induced increase of average 1-4 Hz EEG amplitude” value in assay [1] (3.0 mg/kg i.p. given 15 minutes before diphenhydramine 10.0 mg/kg i.p.) is “significantly reduces”. Further, the Ki – broadly, the equilibrium dissociation constant of an inhibitor or competing ligand from its target – in assay [2] (read-out: rat H3 Ki, cloned rat H3 receptor, C6 or HEK293 cell membranes) worked out at 3.6 nM. The “effect on average amplitude” value in the assay with rat 1-4 Hz EEG amplitude (30.0 mg/kg i.p., first hour after injection) is “lower the average amplitude of 1-4 Hz EEG”; in the assay on rat 1-4 Hz EEG amplitude (3.0-10. mg/kg i.p., first hour), “did not produce significant lowering”.
For `CN(C)CCOC(c1ccccc1)c1ccccc1` [diphenhydramine], the “effect on average amplitude” value in the assay on rat 1-4 Hz EEG amplitude (10.0 mg/kg i.p., first hour) is given as “significantly increased”; in the assay with rat 1-4 Hz EEG amplitude (1.0-3.0 mg/kg i.p., first hour) it was “not significantly different from vehicle control”.

Source of the values: patent publication US20080159958A1, “DETERMINATION OF HISTAMINE-3 BIOACTIVITY” (Abbott Laboratories, priority 2006, published 2008).
